The results in this text go back to patent publication US20030216569A1, “Method of making HIV protease inhibitors” (priority 1993, published 2003).

Experiment [1] relates to HIV-1 isolates IIIB and/or RF in CEM cells. The experiment in a line: SRI primary anti-HIV screen, MTT assay of inhibition of HIV-induced cell killing in CEM cells. Type of experiment: cell-based. Particulars: for SRI CEM IC50: CEM cells; for IC50: Human immunodeficiency virus 1, IIIB, CCRF-CEM, read-out: SRI CEM IC50 ng/mL, CEM cells. As to the method:
(§1) A. Principle of MTT Assay:
This assay involves the conversion of the tetrazolium dye MTT to a colored formazan product by mitochondrial enzymes in metabolically active cells. This assay system is used at SRI to screen over 30,000 compounds per year. Briefly, the assay involves the infection of CEM or MT2 cells in round bottom 96-well plates. The compound of interest is added just prior to infection. Following 6 days of incubation at 37° C. the plates are stained with MTT. The results of the assay are quantitated spectrophotometrically on a Molecular Devices Vmax plate reader. The data are analyzed by linear regression utilizing an in-house software program to calculate antiviral activity (IC25, IC50, IC95) and toxicity (TC25, TC50, TC95) as well as other values.
(§2) Primary antiviral assays are routinely performed in CEM or MT-2 cells.
(§3) B. Standard Screening Assays in CEM and MT-2 Cells
(§4) 1. Compound dilution and delivery to the plates
(§5) Drugs are solubilized in the appropriate vehicle such as distilled water or DMSO if necessary. Latex gloves, lab coats and masks are used during all phases of the handling process to prevent exposure to potentially harmful agents. The drug is prepared at the appropriate concentration and stored at −20° C. until used by the screening laboratory. The first dilution of each compound is made in a dilution tube with medium to yield a concentration two-fold that of the highest test concentration. Sterile titer tubes are then used to make serial one half-log dilutions of each compound. Following drug dilution, the diluted compound is added to the appropriate well of a 96-well microtiter plate. Up to 12 dilutions can be assayed conveniently in triplicate on a single plate with all appropriate controls including cell control, virus control, toxicity control, drug color control, medium control and plastic (background) control. When testing includes only six dilutions, two drugs can be assayed on a single microtiter plate. The drugs are added to the plate in a final volume of 100 microliters.
(§6) During the time the drug dilutions are prepared, cells are washed and counted. Viability is monitored by trypan blue dye exclusion and assays are not performed if the viability falls below 90%. Cells are maintained in an exponential growth phase and are split 1:2 on the day prior to assay to assure exponential growth rate.
(§7) For the primary screen, the cell lines utilized are CEM and MT-2. Unless otherwise indicated, the medium used is RPMI 1640 with 10% heat-inactivated fetal calf serum (FBS), glutamine and antibiotics.
(§8) Cells are propagated at 37° C. in an atmosphere of 5% CO2 in air. The virus employed for this work is HIV-1 isolates IIIB and/or RF, which are prepared by an acute infection process.
(§9) Briefly, virus-infected cells are pelleted on a daily basis beginning at three days post-infection until the virus has killed all of the cells in the culture. Reverse transcriptase activity and p24 ELISA are used to identify pools with the greatest amout of virus.
(§10) These 24-hour harvests are pooled, filtered and frozen at −90° C. Prior to use in the assay, the infectious pool of virus is titered on all available cell lines in order to determine the amount of virus required in the antiviral assay.
In general, pools produced by the acute infection method require the addition of one microliter of infectious virus per well resulting in the screening of drugs at a multiplicity of infection of 0.01. In this manner, enough virus is prepared and frozen to complete over one thousand microtiter plates, allowing the testing of up to two thousand compounds from a single stock of infectious virus.
Virus infection of the CEM and MT-2 cells for the antiviral assay is carried out in a bulk infection process.

The test system of experiment [2] is HIV-1 isolates IIIB and/or RF in MT-2 cells. The experiment is described as follows: SRI primary anti-HIV screen, MTT assay of inhibition of HIV-induced cell killing in MT2 cells. Type of experiment: cell-based. Particulars: for IC50: Human immunodeficiency virus 1, IIIB, MT2, read-out: SRI MT2 IC50 ng/ml, MT2 cells; for SRI MT2 IC50: MT2 cells.
Description: I. Primary Drug Screening of Anti-HIV Compounds at Southern Research Institute (SRI) (Results recorded in Table 1 are designated “SRI CEM (ng/ml)” or “SRI MT2 (ng/ml)”)
as §1
SRI has an established program for the primary antiviral analysis of compounds in microtiter assays which measures the ability of a selected compound to inhibit HIV-induced cell killing. This assay involves the conversion of the tetrazolium dye MTT to a colored formazan product by mitochondrial enzymes in metabolically active cells. This assay system is used at SRI to screen over 30,000 compounds per year. Briefly, the assay involves the infection of CEM or MT2 cells in round bottom 96-well plates. The compound of interest is added just prior to infection. Following 6 days of incubation at 37° C. the plates are stained with MTT. The results of the assay are quantitated spectrophotometrically on a Molecular Devices Vmax plate reader. The data are analyzed by linear regression utilizing an in-house software program to calculate antiviral activity (IC25, IC50, IC95) and toxicity (TC25, TC50, TC95) as well as other values.
as §2, §3, §4
as §5, with “Up to 12 dilutions can be assayed conveniently in triplicate on a single plate with all appropriate controls including cell control, virus control, toxicity control, drug color control, medium control and plastic (background) control.” left out
as §6, §7, §8, §9, §10
In general, pools produced by the acute infection method require the addition of one microliter of infectious virus per well resulting in the screening of drugs at a multiplicity of infection of 0.01. In this manner, enough virus is prepared and frozen to complete over one thousand microtiter plates, allowing the testing of up to two thousand compounds from a single stock of infectious virus. The use of a single stock of virus for a long period of testing has very favorable effects on the repeatability of the assay systems. […]
Background: Tetrazolium dyes change colour on reduction, which living cells bring about.

In experiment [3] the test system is Viral SN123 infected CEM cells.
The mark [4] stands for this setting: Human immunodeficiency virus 1, CCRF-CEM, read-out: Whole cell IC50 nM, CEM cells, values in parentheses are 35B in same assay.
The mark [5] stands for this setting: Human immunodeficiency virus 1, CCRF-CEM, read-out: Whole cell IC90 nM, CEM cells, values in parentheses are 35B in same assay.

In brackets after ≈: the same amount, converted by molar mass. Several values for one entry are separate records, joined by “and”; a condition that tells them apart may be missing. Equal values may be shown once. Read-outs that look alike come from different tables or passages of the source.

As for `CC(C)(C)NC(=O)C1CC2CCCCC2CN1CC(O)C(Cc1ccccc1)NC(=O)c1cccc(O)c1F` (stereo not drawn) [Example 1, [3S-(3R*,4aR*,8aR*,2′S*,3′R*)]-2-[2′-Hydroxy-3′-phenylmethyl-4′-aza-5′-oxo-5′-(2″-fluoro-3″-hydroxyphenyl)pentyl]decahydroisoquinoline-3-N-t-butylcarboxamide], in experiment [1], the “SRI CEM IC50” value was determined as 1.38 µg/mL and the IC50 came to 1000 ng/mL (≈ 1.85 µM). Moreover, in experiment [2], the IC50 worked out at 1310 ng/mL (≈ 2.43 µM) and the “SRI MT2 IC50” value is 1.5 µg/mL.

In the case of `CC(C)(C)NC(=O)C1CC2CCCCC2CN1CC(O)C(Cc1ccccc1)NC(=O)c1cccnc1Cl` (stereo not drawn) [Example 2, [3S-(3R*,4aR*,8aR*,2′S*,3′R*)]-2-[2′-Hydroxy-3′-phenylmethyl-4′-aza-5′-oxo-5′-(2″-chloro-pyrid-3″-yl)pentyl] decahydroisoquinoline-3-N-t-butylcarboxamide], in experiment [1], the “SRI CEM IC50” value turned out to be 1.58 µg/mL and the IC50 was determined as 1380 ng/mL (≈ 2.55 µM). In experiment [2], the IC50 is 1580 ng/mL (≈ 2.92 µM) and the “SRI MT2 IC50” value amounted to 1.63 µg/mL.

Usually IC90 stands for the concentration at which the effect reaches the 90% level. Take `CCc1c(O)cccc1C(=O)NC(Cc1ccccc1)C(O)CN1CC2CCCCC2CC1C(=O)NC(C)(C)C` (stereo not drawn) [Example 3, [3S-(3R*,4aR*,8aR*,2′S*,3′R*)]-2-[2′-Hydroxy-3′-phenylmethyl-4′-aza-5′-oxo-5′-(2″-ethyl-3″-hydroxyphenyl)pentyl] decahydroisoguinoline-3-N-t-butylcarboxamide]: the IC50 in experiment [3] (setting [4]) is 96.1 nM. Also, the IC90 in experiment [3] (setting [5]) amounted to 286 nM. Besides, in experiment [1], the “SRI CEM IC50” value is 0.0113 µg/mL and the IC50 came out at 15.2 ng/mL (≈ 0.0276 µM). Further, in experiment [2], the IC50 came out at 21.3 ng/mL (≈ 0.0387 µM) and the “SRI MT2 IC50” value was 0.0215 µg/mL.

On to `CC(C)(C)NC(=O)C1CC2CCCCC2CN1CC(O)C(Cc1ccccc1)NC(=O)c1ccc[n+]([O-])c1` (stereo not drawn) [Example 5, [3S-(3R*,4aR*,8aR*,2′S*,3′R*)]-2-[2′-Hydroxy-3′-phenylmethyl-4′-aza-5′-oxo-5′-(pyrid-3″yl-N-oxidyl)pentyl] decahydroisoquinoline-3-N-t-butylcarboxamide], for which, in experiment [1], the “SRI CEM IC50” value came to 4.43 µg/mL and the IC50 was determined as 4970 ng/mL (≈ 9.51 µM). Besides, in experiment [2], the IC50 came out at 7800 ng/mL (≈ 14.9 µM) and the “SRI MT2 IC50” value is 5.03 µg/mL.

`CC(C)(C)NC(=O)C1CC2CCCCC2CN1CC(O)C(Cc1ccccc1)NC(=O)c1cccc(O)c1Cl` (stereo not drawn) [Example 11, [3S-(3R*,4aR*,8aR*,2′S*,3′R*)]-2-[2′-Hydroxy-3′-phenylmethyl-4′-aza-5′-oxo-5′-(2″-chloro-3″-hydroxyphenyl)pentyl] decahydroisoquinoline-3-N-t-butylcarboxamide]: the IC50 stood at 114 nM in experiment [3] (setting [4]), 420 ng/mL (≈ 0.755 µM) in experiment [1] and 649 ng/mL (≈ 1.17 µM) in experiment [2]. The “SRI CEM IC50” value in experiment [1] is 0.338 µg/mL. In addition, the “SRI MT2 IC50” value in experiment [2] worked out at 0.387 µg/mL.

Turning to `Cc1c(O)cccc1C(=O)NC(Cc1ccccc1)C(O)CN1CC2CCCCC2CC1C(=O)NC(C)(C)C` (stereo not drawn) [Example 12, [3S-(3R*,4aR*,8aR*,2′S*,3′R*)]-2-[2′-Hydroxy-3′-phenylmethyl-4′-aza-5′-oxo-5′-(2″-methyl-3″-hydroxyphenyl)pentyl] decahydroisoquinoline-3-N-t-butylcarboxamide], the IC50 is 35.7 nM in experiment [3] (Human immunodeficiency virus 1, CCRF-CEM, read-out: Whole cell IC50 nM, CEM cells, tested as the mesylate salt); 15 nM in experiment [3] (setting [4]); 22.3 nM in experiment [3] (read-out: Whole cell IC50 nM, CEM cells, values in parentheses are 35B in same assay); 16.5 ng/mL (≈ 0.0308 µM) in experiment [1]. Moreover, the IC90 in experiment [3] (Human immunodeficiency virus 1, CCRF-CEM, read-out: Whole cell IC90 nM, CEM cells, tested as the mesylate salt) was found to be 91.8 nM; in experiment [3] (setting [5]) it was 47.8 nM; in experiment [3] (read-out: Whole cell IC90 nM, CEM cells, values in parentheses are 35B in same assay), 73.2 nM. In experiment [1], the “SRI CEM IC50” value amounted to 0.0118 µg/mL. Besides, the “SRI MT2 IC50” value in experiment [2] was 0.0243 µg/mL.

As for `CC(C)(C)NC(=O)C1CC2CCCCC2CN1CC(O)C(Cc1ccccc1)NC(=O)c1ccccc1C(F)(F)F` (stereo not drawn) [Example 15, [3S-(3R*,4aR*,8aR*,2′S*,3′R*)]-2-[2′-Hydroxy-3′-phenylmethyl-4′-aza-5′-oxo-5′-(2″-trifluoromethylphenyl)pentyl] decahydroisoquinoline-3-N-t-butylcarboxamide], in experiment [1], the “SRI CEM IC50” value is 1.59 µg/mL and the IC50 was 1430 ng/mL (≈ 2.49 µM). In experiment [2], the IC50 amounted to 1680 ng/mL (≈ 2.93 µM) and the “SRI MT2 IC50” value is 1.47 µg/mL.

On to `CC(C)(C)NC(=O)C1CC2CCCCC2CN1CC(O)C(Cc1ccccc1)NC(=O)c1c(Cl)ccc(O)c1Cl` (stereo not drawn) [Example 17, [3S-(3R*,4aR*,8aR*,2′S*,3′R*)]-2-[2′-Hydroxy-3′-phenylmethyl-4′-aza-5′-oxo-5′-(2″,6″-dichloro-3″-hydroxyphenyl)pentyl] decahydroisoquinoline-3-N-t-butylcarboxamide], for which the “SRI CEM IC50” value in experiment [1] was 2.9 µg/mL and 2.5 µg/mL. Also, the “SRI MT2 IC50” value in experiment [2] was 8.99 µg/mL and 5.39 µg/mL.

As to `Cc1c(O)cccc1C(=O)N[C@@H](CSc1ccc2ccccc2c1)[C@H](O)CN1CCCC[C@H]1C(=O)NC(C)(C)C` [Example 25, [2S-(2R*,2′S*,3′S*)]-1-[2′-Hydroxy-3′-(naphth-2-ylthiomethyl-4′-aza-5′-oxo-5′-(2″-methyl-3″-hydroxyphenyl)pentyl]piperidine-2-N-t-butylcarboxamide], the IC50 was 211 ng/mL (≈ 0.374 µM) in experiment [1] and 169 ng/mL (≈ 0.3 µM) in experiment [2].

Consider “[3S-(3R*,4aR*,8aR*,2′S*,3′S*)]-2-[2′-Hydroxy-3′-phenylmethyl-4′-aza-5′-oxo-5′-[2″-methyl-3″-N-(methylsulfonyl)amino-phenyl)]pentyl] decahydroisoguinoline-3-N-t-butylcarboxamide [Example 36]”, for which the “SRI CEM IC50” value in experiment [1] was 2.43 µg/mL and 1.73 µg/mL. Besides, in experiment [2], the “SRI MT2 IC50” value was 1.87 µg/mL and 2.3 µg/mL.
